Test results as given in ChEMBL document CHEMBL3885861, “Open TG-GATES”.

Species on record: Rattus norvegicus
Test: Open TG-GATES - Regimen: Daily Repeat
Type: toxicity, organism-based, Sprague-Dawley
Design: regimen Daily Repeat, gender Male, age 6 weeks
Details: in vivo, iv, 1 mg/kg, route intravenous injection, dose level High; for APTT / Bas / Eos / Fbg / Hb / Ht / Lym / MCH / MCHC / MCV / Mono / Neu / PT / Plat / RBC / Ret / WBC: tissue Blood; for KIDNEY_L / KIDNEY_R / KIDNEY_TOTAL: tissue Kidney; for LIVER: tissue Liver; for A/G / ALP / ALT / AST / BUN / CRE / Ca / Cl / DBIL / GLC / IP / K / LDH / Na / PL / RALB / TBIL / TC / TG / TP / gamma-GTP: tissue Plasma

## C[C@@H]1[C@H](O)[C@@H](C)/C=C/C=C/C=C/C=C/C=C/C=C/C=C/[C@H](O[C@@H]2O[C@H](C)[C@@H](O)[C@H](N)[C@@H]2O)C[C@@H]2O[C@](O)(C[C@@H](O)C[C@@H](O)[C@H](O)CC[C@@H](O)C[C@@H](O)CC(=O)O[C@H]1C)C[C@H](O)[C@H]2C(=O)O [AMPHOTERICIN B]
72 h, time 3 day
  TERMINAL_BW: 235.4 g
  APTT: 15.8 s
  Bas: 0%
  Eos: 0.8%
  Fbg: 303.4 mg/dL
  Hb: 13.7 g/dL
  Ht: 39.2%
  Lym: 80.8%
  MCH: 21.3 pg
  MCHC: 34.8%
  MCV: 61.1 fL
  Mono: 2.2%
  Neu: 15.2%
  PT: 12.3 s
  Plat: 136.2 x10_4/uL
  RBC: 643 x10_4/ul
  Ret: 4.2%
  WBC: 106.4 x10_2/uL
  KIDNEY_L: 1 g
  KIDNEY_R: 1 g
  KIDNEY_TOTAL: 2 g
  LIVER: 10.7 g
  A/G: 0.8
  ALP: 1621.8 IU/L
  ALT: 32 IU/L
  AST: 61.2 IU/L
  BUN: 22.6 mg/dL
  CRE: 0.2 mg/dL
  Ca: 10.9 mg/dL
  Cl: 106.4 meq/L
  DBIL: 0.018 mg/dL
  GLC: 174.6 mg/dL
  IP: 7.1 mg/dL
  K: 4.1 meq/L
  LDH: 51.8 IU/L
  Na: 143 meq/L
  PL: 147 mg/dL
  RALB: 2.6 g/dL
  TBIL: 0.05 mg/dL
  TC: 85 mg/dL
  TG: 94.8 mg/dL
  TP: 5.9 g/dL
  gamma-GTP: 1.8 IU/L
[…], time 7 day
  TERMINAL_BW: 266.4 g
  APTT: 17.2 s
  Bas: 0%
  Eos: 1%
  Fbg: 287 mg/dL
  Hb: 13.6 g/dL
  Ht: 39%
  Lym: 78%
  MCH: 20.5 pg
  MCHC: 34.9%
  MCV: 58.6 fL
  Mono: 2.2%
  Neu: 18.6%
  PT: 11.9 s
  Plat: 141.2 x10_4/uL
  RBC: 665.8 x10_4/ul
  Ret: 4.7%
  WBC: 126.3 x10_2/uL
  KIDNEY_L: 1.2 g
  KIDNEY_R: 1.1 g
  KIDNEY_TOTAL: 2.3 g
  LIVER: 12.5 g
  A/G: 0.8
  ALP: 1417.8 IU/L
  ALT: 29.8 IU/L
  AST: 57.2 IU/L
  BUN: 22.4 mg/dL
  CRE: 0.2 mg/dL
  Ca: 11.2 mg/dL
  Cl: 105.2 meq/L
  DBIL: 0.018 mg/dL
  GLC: 177.8 mg/dL
  IP: 6.7 mg/dL
  K: 4.4 meq/L
  LDH: 57.4 IU/L
  Na: 143.2 meq/L
  PL: 145.6 mg/dL
  RALB: 2.6 g/dL
  TBIL: 0.044 mg/dL
  TC: 77 mg/dL
  TG: 138.6 mg/dL
  TP: 6 g/dL
  gamma-GTP: 1.2 IU/L
[…], time 14 day
  TERMINAL_BW: 304.7 g
  APTT: 16.6 s
  Bas: 0.4%
  Eos: 0.8%
  Fbg: 281.6 mg/dL
  Hb: 14.4 g/dL
  Ht: 40.7%
  Lym: 82.8%
  MCH: 20.3 pg
  MCHC: 35.4%
  MCV: 57.2 fL
  Mono: 1.6%
  Neu: 14.2%
  PT: 12.5 s
  Plat: 122.8 x10_4/uL
  RBC: 711.2 x10_4/ul
  Ret: 4.1%
  WBC: 116.3 x10_2/uL
  KIDNEY_L: 1.2 g
  KIDNEY_R: 1.2 g
  KIDNEY_TOTAL: 2.5 g
  LIVER: 12.9 g
  A/G: 0.8
  ALP: 1437.6 IU/L
  ALT: 31.6 IU/L
  AST: 63 IU/L
  BUN: 27.2 mg/dL
  CRE: 0.2 mg/dL
  Ca: 10.8 mg/dL
  Cl: 105 meq/L
  DBIL: 0.016 mg/dL
  GLC: 183.2 mg/dL
  IP: 6.7 mg/dL
  K: 4.6 meq/L
  LDH: 54 IU/L
  Na: 142.8 meq/L
  PL: 149.8 mg/dL
  RALB: 2.6 g/dL
  TBIL: 0.048 mg/dL
  TC: 75.6 mg/dL
  TG: 132.8 mg/dL
  TP: 6 g/dL
  gamma-GTP: 1 IU/L
[…], time 28 day
  TERMINAL_BW: 371.1 g
  APTT: 19.3 s
  Bas: 1%
  Eos: 1%
  Fbg: 322.5 mg/dL
  Hb: 15.1 g/dL
  Ht: 42.9%
  Lym: 80.8%
  MCH: 18.9 pg
  MCHC: 35.2%
  MCV: 53.8 fL
  Mono: 2.2%
  Neu: 14.5%
  PT: 12.9 s
  Plat: 127.8 x10_4/uL
  RBC: 798.8 x10_4/ul
  Ret: 2.8%
  WBC: 135.7 x10_2/uL
  KIDNEY_L: 1.4 g
  KIDNEY_R: 1.3 g
  KIDNEY_TOTAL: 2.7 g
  LIVER: 14.4 g
  A/G: 0.6
  ALP: 1068.2 IU/L
  ALT: 30.2 IU/L
  AST: 60.2 IU/L
  BUN: 26.8 mg/dL
  CRE: 0.2 mg/dL
  Ca: 10.9 mg/dL
  Cl: 106 meq/L
  DBIL: 0.0175 mg/dL
  GLC: 178 mg/dL
  IP: 6.1 mg/dL
  K: 4 meq/L
  LDH: 52.8 IU/L
  Na: 145.2 meq/L
  PL: 128.8 mg/dL
  RALB: 2.6 g/dL
  TBIL: 0.06 mg/dL
  TC: 63.2 mg/dL
  TG: 105 mg/dL
  TP: 6.4 g/dL
  gamma-GTP: 1.2 IU/L
